In patent US20230365592A1 (Agios Pharmaceuticals, Inc., priority 2022, published 2023):
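Also: after compound treatment, cells received sepiapterin plus isotope-labelled Phenylalanine for 4 hours, then labelled Tyrosine in the medium was quantified, 10-point 2-fold dilution series run in duplicate.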

Each molecule was assayed against T1, human PAH with the R408W mutation (Homo sapiens, UniProt P00439, R408W) (assay: Cell Based Phenylalanine Flux Assay). Details: A375 cells expressing human R408W PAH; 24 hrs compound incubation; 13C-Tyrosine by LC-MS; average where tested multiple times; read-out: AC50.
T1 construct: expressed in transfected cells
T1 sequence (P00439 1-452 R408W): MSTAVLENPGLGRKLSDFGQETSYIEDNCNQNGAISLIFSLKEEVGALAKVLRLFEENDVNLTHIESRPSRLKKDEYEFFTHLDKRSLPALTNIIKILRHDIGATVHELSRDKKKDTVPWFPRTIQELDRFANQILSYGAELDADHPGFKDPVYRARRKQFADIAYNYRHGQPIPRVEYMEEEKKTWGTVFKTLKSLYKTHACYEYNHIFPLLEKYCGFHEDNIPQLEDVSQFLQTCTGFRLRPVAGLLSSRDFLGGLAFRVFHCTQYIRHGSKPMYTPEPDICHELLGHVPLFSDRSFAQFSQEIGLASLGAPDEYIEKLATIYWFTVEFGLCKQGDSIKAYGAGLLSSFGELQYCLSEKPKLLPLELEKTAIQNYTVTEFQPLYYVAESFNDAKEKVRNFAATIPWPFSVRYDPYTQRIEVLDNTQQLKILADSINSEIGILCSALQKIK
CC(C)(F)c1nnc(C(=O)N2CCc3[nH]cnc3[C@@H]2c2cc3c(F)cccn3n2)o1 [Example 1025, (R)-(5-(2-fluoropropan-2-yl)-1,3,4-oxadiazol-2-yl)(4-(4-fluoropyrazolo[1,5-a]pyridin-2-yl)-6,7-dihydro-1H-imidazo[4,5-c]pyridin-5(4H)-yl)methanone] showed an AC50 of 1000 to 5000 nM.
For CC(C)(C)c1nnc(C(=O)N2CCc3[nH]cnc3[C@@H]2c2cc3c(F)cccn3n2)o1 [Example 1026, (R)-(5-(tert-butyl)-1,3,4-oxadiazol-2-yl)(4-(4-fluoropyrazolo[1,5-a]pyridin-2-yl)-6,7-dihydro-1H-imidazo[4,5-c]pyridin-5(4H)-yl)methanone], the AC50 was 1000 to 5000 nM.
Molecule CC(C)(C)c1nnc(C(=O)N2CCc3[nH]cnc3[C@H]2c2cc3c(F)cccn3n2)o1 [Example 1027, (S)-(5-(tert-butyl)-1,3,4-oxadiazol-2-yl)(4-(4-fluoropyrazolo[1,5-a]pyridin-2-yl)-6,7-dihydro-1H-imidazo[4,5-c]pyridin-5(4H)-yl)methanone] has an AC50 of under 500 nM.
O=C(c1nnc(-c2ccccn2)o1)N1CCc2[nH]cnc2[C@H]1c1cc2cccc(C(F)(F)F)n2n1 [Example 1028, (S)-(5-(pyridin-2-yl)-1,3,4-oxadiazol-2-yl)(4-(7-(trifluoromethyl)pyrazolo[1,5-a]pyridin-2-yl)-6,7-dihydro-1H-imidazo[4,5-c]pyridin-5(4H)-yl)methanone] gave an AC50 of under 500 nM.
With O=C(c1nnc(-c2ccccn2)o1)N1CCc2[nH]cnc2[C@@H]1c1cc2cccc(C(F)(F)F)n2n1 [Example 1029, (R)-(5-(pyridin-2-yl)-1,3,4-oxadiazol-2-yl)(4-(7-(trifluoromethyl)pyrazolo[1,5-a]pyridin-2-yl)-6,7-dihydro-1H-imidazo[4,5-c]pyridin-5(4H)-yl)methanone] the AC50 was 1000 to 5000 nM.
Cn1ccc(-c2nnc(C(=O)N3CCc4[nH]cnc4[C@H]3c3cc4cccc(C(F)(F)F)n4n3)o2)n1 [Example 1030, (S)-(5-(1-methyl-1H-pyrazol-3-yl)-1,3,4-oxadiazol-2-yl)(4-(7-(trifluoromethyl)pyrazolo[1,5-a]pyridin-2-yl)-6,7-dihydro-1H-imidazo[4,5-c]pyridin-5(4H)-yl)methanone] showed an AC50 of under 500 nM.
With Cn1cnc(-c2nnc(C(=O)N3CCc4[nH]cnc4[C@H]3c3cc4cccc(C(F)(F)F)n4n3)o2)c1 [Example 1032, (S)-(5-(1-methyl-1H-imidazol-4-yl)-1,3,4-oxadiazol-2-yl)(4-(7-(trifluoromethyl)pyrazolo[1,5-a]pyridin-2-yl)-6,7-dihydro-1H-imidazo(4,5-c]pyridin-5(4H)-yl)methanone] the AC50 was 500 to 1000 nM.
Cn1cnc(-c2nnc(C(=O)N3CCc4[nH]cnc4[C@@H]3c3cc4cccc(C(F)(F)F)n4n3)o2)c1 [Example 1033, (R)-(5-(1-methyl-1H-imidazol-4-yl)-1,3,4-oxadiazol-2-yl)(4-(7-(trifluoromethyl)pyrazolo[1,5-a]pyridin-2-yl)-6,7-dihydro-1H-imidazo[4,5-c]pyridin-5(4H)-yl)methanone] showed an AC50 of 1000 to 5000 nM.
Molecule O=C(c1nnc(-c2ncccc2F)o1)N1CCc2[nH]cnc2[C@H]1c1cc2cccc(C(F)(F)F)n2n1 [Example 1034, (S)-(5-(3-fluoropyridin-2-yl)-1,3,4-oxadiazol-2-yl)(4-(7-(trifluoromethyl)pyrazolo[1,5-a]pyridin-2-yl)-6,7-dihydro-1H-imidazo[4,5-c]pyridin-5(4H)-yl)methanone] has an AC50 of 500 to 1000 nM.
With O=C(c1nnc(-c2ncccc2F)o1)N1CCc2[nH]cnc2[C@@H]1c1cc2cccc(C(F)(F)F)n2n1 [Example 1035, (R)-(5-(3-fluoropyridin-2-yl)-1,3,4-oxadiazol-2-yl)(4-(7-(trifluoromethyl)pyrazolo[1,5-a]pyridin-2-yl)-6,7-dihydro-1H-imidazo[4,5-c]pyridin-5(4H)-yl)methanone] the AC50 was over 5000 nM.
For O=C(c1nnc(-c2ccn(C(F)F)n2)o1)N1CCc2[nH]cnc2[C@H]1c1cc2cccc(C(F)(F)F)n2n1 [Example 1036, (S)-(5-(1-(difluoromethyl)-1H-pyrazol-3-yl)-1,3,4-oxadiazol-2-yl)(4-(7-(trifluoromethyl)pyrazolo[1,5-a]pyridin-2-yl)-6,7-dihydro-1H-imidazo[4,5-c]pyridin-5(4H)-yl)methanone], the AC50 was 500 to 1000 nM.
With O=C(c1nnc(-c2ccn(C(F)F)n2)o1)N1CCc2[nH]cnc2[C@@H]1c1cc2cccc(C(F)(F)F)n2n1 [Example 1037, (R)-(5-(1-(difluoromethyl)-1H-pyrazol-3-yl)-1,3,4-oxadiazol-2-yl)(4-(7-(trifluoromethyl)pyrazolo[1,5-a]pyridin-2-yl)-6,7-dihydro-1H-imidazo[4,5-c]pyridin-5(4H)-yl)methanone] the AC50 was over 5000 nM.
Cc1cccn2nc([C@@H]3c4nc[nH]c4CCN3C(=O)c3nnc(-c4cnn(C5CCC5)c4)o3)cc12 [Example 1038, (S)-(5-(1-cyclobutyl-1H-pyrazol-4-yl)-1,3,4-oxadiazol-2-yl)(4-(4-methylpyrazolo[1,5-a]pyridin-2-yl)-6,7-dihydro-1H-imidazo[4,5-c]pyridin-5(4H)-yl)methanone] gave an AC50 of under 500 nM.
Cc1cccn2nc([C@H]3c4nc[nH]c4CCN3C(=O)c3nnc(-c4cnn(C5CCC5)c4)o3)cc12 [Example 1039, (R)-(5-(1-cyclobutyl-1H-pyrazol-4-yl)-1,3,4-oxadiazol-2-yl)(4-(4-methylpyrazolo[1,5-a]pyridin-2-yl)-6,7-dihydro-1H-imidazo[4,5-c]pyridin-5(4H)-yl)methanone] gave an AC50 of over 5000 nM.
With O=C(c1nnc(-c2cnn(C(F)F)c2)o1)N1CCc2[nH]cnc2[C@H]1c1cc2cccc(C(F)(F)F)n2n1 [Example 1040, (S)-(5-(1-(difluoromethyl)-1H-pyrazol-4-yl)-1,3,4-oxadiazol-2-yl)(4-(7-(trifluoromethyl)pyrazolo[1,5-a]pyridin-2-yl)-6,7-dihydro-1H-imidazo[4,5-c]pyridin-5(4H)-yl)methanone] the AC50 was 500 to 1000 nM.
In the case of O=C(c1nnc(-c2cnn(C(F)F)c2)o1)N1CCc2[nH]cnc2[C@@H]1c1cc2cccc(C(F)(F)F)n2n1 [Example 1041, (R)-(5-(1-(difluoromethyl)-1H-pyrazol-4-yl)-1,3,4-oxadiazol-2-yl)(4-(7-(trifluoromethyl)pyrazolo[1,5-a]pyridin-2-yl)-6,7-dihydro-1H-imidazo[4,5-c]pyridin-5(4H)-yl)methanone], the AC50 is reported as over 5000 nM.
O=C(c1nnc(-c2ccccn2)o1)N1CCc2[nH]cnc2[C@H]1c1cc2cccc(Cl)n2n1 [Example 1042, (S)-(4-(7-chloropyrazolo[1,5-a]pyridin-2-yl)-6,7-dihydro-1H-imidazo[4,5-c]pyridin-5(4H)-yl)(5-(pyridin-2-yl)-1,3,4-oxadiazol-2-yl)methanone] showed an AC50 of under 500 nM.
Molecule Cn1ncnc1C(=O)N1CCc2[nH]cnc2[C@H]1c1cc2c(C(F)(F)F)cccn2n1 [Example 1044, (S)-(1-methyl-1H-1,2,4-triazol-5-yl)(4-(4-(trifluoromethyl)pyrazolo[1,5-a]pyridin-2-yl)-6,7-dihydro-1H-imidazo[4,5-c]pyridin-5(4H)-yl)methanone] has an AC50 of under 500 nM.
With CC(C)(C)c1nnc(C(=O)N2CCc3[nH]cnc3[C@@H]2c2cc3c(Cl)cccn3n2)o1 [Example 1046, (R)-(5-(tert-butyl)-1,3,4-oxadiazol-2-yl)(4-(4-chloropyrazolo[1,5-a]pyridin-2-yl)-6,7-dihydro-1H-imidazo[4,5-c]pyridin-5(4H)-yl)methanone] the AC50 was over 5000 nM.
CC(C)(C)c1nnc(C(=O)N2CCc3[nH]cnc3[C@H]2c2cc3c(Cl)cccn3n2)o1 [Example 1047, (S)-(5-(tert-butyl)-1,3,4-oxadiazol-2-yl)(4-(4-chloropyrazolo[1,5-a]pyridin-2-yl)-6,7-dihydro-1H-imidazo[4,5-c]pyridin-5(4H)-yl)methanone] gave an AC50 of under 500 nM.
In the case of Cc1ccn2nc([C@@H]3c4nc[nH]c4CCN3C(=O)c3nc(C(F)F)nn3C)cc2c1 [Example 1049, (S)-(3-(difluoromethyl)-1-methyl-1H-1,2,4-triazol-5-yl)(4-(5-methylpyrazolo[1,5-a]pyridin-2-yl)-6,7-dihydro-1H-imidazo[4,5-c]pyridin-5(4H)-yl)methanone], the AC50 is reported as 500 to 1000 nM.
With Cn1ncnc1C(=O)N1CCc2[nH]cnc2[C@@H]1c1cc2c(Cl)cccn2n1 [Example 1051, (R)-(4-(4-chloropyrazolo[1,5-a]pyridin-2-yl)-6,7-dihydro-1H-imidazo[4,5-c]pyridin-5(4H)-yl)(1-methyl-1H-1,2,4-triazol-5-yl)methanone] the AC50 was over 5000 nM.
Work on Cn1nc(C(F)(F)F)nc1C(=O)N1CCc2[nH]cnc2[C@H]1c1cc2c(Cl)cccn2n1 [Example 1052, (S)-(4-(4-chloropyrazolo[1,5-a]pyridin-2-yl)-6,7-dihydro-1H-imidazo[4,5-c]pyridin-5(4H)-yl)(1-methyl-3-(trifluoromethyl)-1H-1,2,4-triazol-5-yl)methanone] yielded an AC50 of under 500 nM.
In the case of Cn1nc(C(F)(F)F)nc1C(=O)N1CCc2[nH]cnc2[C@@H]1c1cc2c(Cl)cccn2n1 [Example 1053, (R)-(4-(4-chloropyrazolo[1,5-a]pyridin-2-yl)-6,7-dihydro-1H-imidazo[4,5-c]pyridin-5(4H)-yl)(1-methyl-3-(trifluoromethyl)-1H-1,2,4-triazol-5-yl)methanone], the AC50 is reported as 1000 to 5000 nM.
With Cn1nc(Cl)nc1C(=O)N1CCc2[nH]cnc2[C@H]1c1cc2c(Cl)cccn2n1 [Example 1054, (S)-(3-chloro-1-methyl-1H-1,2,4-triazol-5-yl)(4-(4-chloropyrazolo[1,5-a]pyridin-2-yl)-6,7-dihydro-1H-imidazo[4,5-c]pyridin-5(4H)-yl)methanone] the AC50 was under 500 nM.
